Data: ChEMBL document CHEMBL1155271, “Synthesis, crystal structures and antibacterial activity studies of aza-derivatives of phytoalexin from cotton plant--gossypol” (2009)
≈ marks a conversion by molar mass, not a printed value. Calls of active or inactive are those of the source. No cut-off for these calls is given here.

Experiments:
Type in all cases: functional
Staphylococcus aureus [1] = experiment: Antimicrobial activity against Staphylococcus aureus ATCC 6538 at 400 ug after 18 hrs by disk diffusion method; conditions: ATCC 6538, 18 h, read-out: DIZ
Staphylococcus aureus [2] = experiment: Antimicrobial activity against Methicillin susceptible Staphylococcus aureus 237/7 by twofold dilution technique
Micrococcus luteus [3] = experiment: Antimicrobial activity against Micrococcus luteus ATCC 10240 at 400 ug after 18 hrs by disk diffusion method; conditions: ATCC 10240, 18 h, read-out: DIZ
Staphylococcus aureus [4] = experiment: Antimicrobial activity against Methicillin susceptible Staphylococcus aureus 239/7 by twofold dilution technique
Staphylococcus aureus [5] = experiment: Antimicrobial activity against Staphylococcus aureus ATCC 29213 at 400 ug after 18 hrs by disk diffusion method; conditions: ATCC 29213, 18 h, read-out: DIZ
Enterococcus hirae [6] = experiment: Antimicrobial activity against Enterococcus hirae ATCC 10541 at 400 ug after 18 hrs by disk diffusion method
Staphylococcus aureus [7] = experiment: Antimicrobial activity against methicillin-resistant Staphylococcus aureus 146/6 by twofold dilution technique
Staphylococcus aureus [8] = experiment: Antimicrobial activity against Methicillin susceptible Staphylococcus aureus 208/7 by twofold dilution technique
Staphylococcus aureus [9] = experiment: Antimicrobial activity against Staphylococcus aureus ATCC 29213 after 18 hrs by twofold dilution technique; conditions: ATCC 29213, 18 h
Staphylococcus aureus [10] = experiment: Antimicrobial activity against Methicillin susceptible Staphylococcus aureus 207/7 by twofold dilution technique
Staphylococcus aureus [11] = experiment: Antimicrobial activity against Staphylococcus aureus ATCC 25923 at 400 ug after 18 hrs by disk diffusion method; conditions: ATCC 25923, 18 h, read-out: DIZ
Staphylococcus aureus [12] = experiment: Antimicrobial activity against Methicillin susceptible Staphylococcus aureus 206/7 by twofold dilution technique
Bacillus subtilis [13] = experiment: Antimicrobial activity against Bacillus subtilis ATCC 6633 at 400 ug after 18 hrs by disk diffusion method; conditions: ATCC 6633, 18 h, read-out: DIZ
Micrococcus luteus [14] = experiment: Antimicrobial activity against Micrococcus luteus ATCC 9341 after 18 hrs by twofold dilution technique; conditions: ATCC 9341, 18 h
Staphylococcus aureus [15] = experiment: Antimicrobial activity against methicillin-resistant Staphylococcus aureus 218/7 by twofold dilution technique
Staphylococcus aureus [16] = experiment: Antimicrobial activity against methicillin-resistant Staphylococcus aureus 140/6 by twofold dilution technique
[17] = tested on: Staphylococcus epidermidis; experiment: Antimicrobial activity against Staphylococcus epidermidis ATCC 12228 by twofold dilution technique
Staphylococcus aureus [18] = experiment: Antimicrobial activity against Methicillin susceptible Staphylococcus aureus 243/7 by twofold dilution technique
Staphylococcus aureus [19] = experiment: Antimicrobial activity against Methicillin susceptible Staphylococcus aureus 213/7 by twofold dilution technique
Staphylococcus aureus [20] = experiment: Antimicrobial activity against Staphylococcus aureus NCTC 4163 at 400 ug after 18 hrs by disk diffusion method; conditions: NCTC 4163, 18 h, read-out: DIZ
Enterococcus hirae [21] = experiment: Antimicrobial activity against Enterococcus hirae ATCC 10541 after 18 hrs by twofold dilution technique; conditions: ATCC 10541, 18 h
Staphylococcus aureus [22] = experiment: Antimicrobial activity against methicillin-resistant Staphylococcus aureus 136/6 by twofold dilution technique
Bacillus cereus [23] = experiment: Antimicrobial activity against Bacillus cereus ATCC 11778 after 18 hrs by twofold dilution technique; conditions: ATCC 11778, 18 h
Staphylococcus aureus [24] = experiment: Antimicrobial activity against methicillin-resistant Staphylococcus aureus 143/6 by twofold dilution technique
Bacillus cereus [25] = experiment: Antimicrobial activity against Bacillus cereus ATCC 11778 at 400 ug after 18 hrs by disk diffusion method; conditions: ATCC 11778, 18 h, read-out: DIZ
[26] = tested on: Staphylococcus epidermidis; experiment: Antimicrobial activity against Staphylococcus epidermidis ATCC 12228 at 400 ug after 18 hrs by disk diffusion method; conditions: ATCC 12228, 18 h, read-out: DIZ
Staphylococcus aureus [27] = experiment: Antimicrobial activity against methicillin-resistant Staphylococcus aureus 236/7 by twofold dilution technique
Staphylococcus aureus [28] = experiment: Antimicrobial activity against Staphylococcus aureus ATCC 25923 after 18 hrs by twofold dilution technique; conditions: ATCC 25923, 18 h
Staphylococcus aureus [29] = experiment: Antimicrobial activity against methicillin-resistant Staphylococcus aureus 141/6 by twofold dilution technique
Staphylococcus aureus [30] = experiment: Antimicrobial activity against Methicillin susceptible Staphylococcus aureus 238/7 by twofold dilution technique
Staphylococcus aureus [31] = experiment: Antimicrobial activity against methicillin-resistant Staphylococcus aureus 144/6 by twofold dilution technique
Bacillus subtilis [32] = experiment: Antimicrobial activity against Bacillus subtilis ATCC 6633 after 18 hrs by twofold dilution technique; conditions: ATCC 6633, 18 h
Micrococcus luteus [33] = experiment: Antimicrobial activity against Micrococcus luteus ATCC 9341 at 400 ug after 18 hrs by disk diffusion method
Staphylococcus aureus [34] = experiment: Antimicrobial activity against methicillin-resistant Staphylococcus aureus 200/7 by twofold dilution technique
Staphylococcus aureus [35] = experiment: Antimicrobial activity against Staphylococcus aureus NCTC 4163 after 18 hrs by twofold dilution technique; conditions: NCTC 4163, 18 h
Staphylococcus aureus [36] = experiment: Antimicrobial activity against Methicillin susceptible Staphylococcus aureus 242/7 by twofold dilution technique
Staphylococcus aureus [37] = experiment: Antimicrobial activity against Staphylococcus aureus ATCC 6538 after 18 hrs by twofold dilution technique; conditions: ATCC 6538, 18 h
Micrococcus luteus [38] = experiment: Antimicrobial activity against Micrococcus luteus ATCC 10240 by twofold dilution technique
Staphylococcus aureus [39] = experiment: Antimicrobial activity against methicillin-resistant Staphylococcus aureus 217/7 by twofold dilution technique
Staphylococcus aureus [40] = experiment: Antimicrobial activity against Methicillin susceptible Staphylococcus aureus 212/7 by twofold dilution technique

SMILES	zone of inhibition at 400 µg/disc (Staphylococcus aureus [1])	MIC (Staphylococcus aureus [2])	zone of inhibition at 400 µg/disc (Micrococcus luteus [3])	MIC (Staphylococcus aureus [4])	zone of inhibition at 400 µg/disc (Staphylococcus aureus [5])	diameter of the inhibition zone (DIZ) (Enterococcus hirae [6])	MIC (Staphylococcus aureus [7])	MIC (Staphylococcus aureus [8])	MIC (Staphylococcus aureus [9])	MIC (Staphylococcus aureus [10])	zone of inhibition at 400 µg/disc (Staphylococcus aureus [11])	MIC (Staphylococcus aureus [12])	zone of inhibition at 400 µg/disc (Bacillus subtilis [13])	MIC (Micrococcus luteus [14])	MIC (Staphylococcus aureus [15])	MIC (Staphylococcus aureus [16])	MIC [17]	MIC (Staphylococcus aureus [18])	MIC (Staphylococcus aureus [19])	zone of inhibition at 400 µg/disc (Staphylococcus aureus [20])	further results
COCCOC(CN/N=C/c1c(O)c(O)c(C(C)C)c2cc(C)c(-c3c(C)cc4c(C(C)C)c(O)c(O)c(/C=N/NCC(OCCOC)OCCOC)c4c3O)c(O)c12)OCCOC	11 mm	400 µg/mL (≈ 445 µM)	14 mm	400 µg/mL (≈ 445 µM)	11 mm	inactive	400 µg/mL (≈ 445 µM)	> 400 µg/mL	400 µg/mL (≈ 445 µM)	> 400 µg/mL	12 mm	400 µg/mL (≈ 445 µM)	12 mm	400 µg/mL (≈ 445 µM)	> 400 µg/mL	400 µg/mL (≈ 445 µM)	> 400 µg/mL	> 400 µg/mL	400 µg/mL (≈ 445 µM)	11 mm	MIC (Enterococcus hirae [21]): 400 µg/mL (≈ 445 µM); MIC (Staphylococcus aureus [22]): 400 µg/mL (≈ 445 µM); MIC (Bacillus cereus [23]): 400 µg/mL (≈ 445 µM); MIC (Staphylococcus aureus [24]): > 400 µg/mL; zone of inhibition at 400 µg/disc (Bacillus cereus [25]): 12 mm; zone of inhibition at 400 µg/disc [26]: 13 mm; MIC (Staphylococcus aureus [27]): 400 µg/mL (≈ 445 µM); MIC (Staphylococcus aureus [28]): 400 µg/mL (≈ 445 µM); MIC (Staphylococcus aureus [29]): 400 µg/mL (≈ 445 µM); MIC (Staphylococcus aureus [30]): 400 µg/mL (≈ 445 µM); MIC (Staphylococcus aureus [31]): 400 µg/mL (≈ 445 µM); MIC (Bacillus subtilis [32]): > 400 µg/mL; diameter of the inhibition zone (DIZ) (Micrococcus luteus [33]): inactive; MIC (Staphylococcus aureus [34]): > 400 µg/mL; MIC (Staphylococcus aureus [35]): 400 µg/mL (≈ 445 µM); MIC (Staphylococcus aureus [36]): 200 µg/mL (≈ 222 µM); MIC (Staphylococcus aureus [37]): 400 µg/mL (≈ 445 µM); MIC (Micrococcus luteus [38]): 400 µg/mL (≈ 445 µM); MIC (Staphylococcus aureus [39]): > 400 µg/mL; MIC (Staphylococcus aureus [40]): > 400 µg/mL
COCCOCCN/N=C/c1c(O)c(O)c(C(C)C)c2cc(C)c(-c3c(C)cc4c(C(C)C)c(O)c(O)c(/C=N/NCCOCCOC)c4c3O)c(O)c12	12 mm	200 µg/mL (≈ 266 µM)	11 mm	400 µg/mL (≈ 533 µM)	13 mm	inactive	200 µg/mL (≈ 266 µM)	400 µg/mL (≈ 533 µM)	100 µg/mL (≈ 133 µM)	400 µg/mL (≈ 533 µM)	12 mm	100 µg/mL (≈ 133 µM)	11 mm	200 µg/mL (≈ 266 µM)	200 µg/mL (≈ 266 µM)	200 µg/mL (≈ 266 µM)	> 400 µg/mL	400 µg/mL (≈ 533 µM)	200 µg/mL (≈ 266 µM)	12 mm	MIC (Enterococcus hirae [21]): 200 µg/mL (≈ 266 µM); MIC (Staphylococcus aureus [22]): 100 µg/mL (≈ 133 µM); MIC (Bacillus cereus [23]): 100 µg/mL (≈ 133 µM); MIC (Staphylococcus aureus [24]): 400 µg/mL (≈ 533 µM); zone of inhibition at 400 µg/disc (Bacillus cereus [25]): 11 mm; zone of inhibition at 400 µg/disc [26]: 12 mm; MIC (Staphylococcus aureus [27]): 100 µg/mL (≈ 133 µM); MIC (Staphylococcus aureus [28]): 200 µg/mL (≈ 266 µM); MIC (Staphylococcus aureus [29]): 200 µg/mL (≈ 266 µM); MIC (Staphylococcus aureus [30]): 100 µg/mL (≈ 133 µM); MIC (Staphylococcus aureus [31]): 200 µg/mL (≈ 266 µM); MIC (Bacillus subtilis [32]): 400 µg/mL (≈ 533 µM); diameter of the inhibition zone (DIZ) (Micrococcus luteus [33]): inactive; MIC (Staphylococcus aureus [34]): 200 µg/mL (≈ 266 µM); MIC (Staphylococcus aureus [35]): 200 µg/mL (≈ 266 µM); MIC (Staphylococcus aureus [36]): 50 µg/mL (≈ 66.6 µM); MIC (Staphylococcus aureus [37]): 100 µg/mL (≈ 133 µM); MIC (Micrococcus luteus [38]): 200 µg/mL (≈ 266 µM); MIC (Staphylococcus aureus [39]): 400 µg/mL (≈ 533 µM); MIC (Staphylococcus aureus [40]): 400 µg/mL (≈ 533 µM)
